The results in this text go back to publication PMC6522510 (Nature Communications, 2019).

Some test systems named below: CMK; M07e; MOLM-13; MV4-11; CMS; CHRF288-11; ML-2; U937.
Holding throughout (design): species or system AML cell lines (8); Primary HTS, single concentration about 10 uM, Cell Titer Glo viability; log10 luminescence, per cent inhibition relative to cycloheximide control
What all share (details): 72 h, relative to cycloheximide control, log10 luminescence, inhibitor

Where a name gives a salt, the structure may show the parent alone. Read-outs that look alike come from different tables or passages of the source.

With `CC(C)[C@@H](O)CC[C@@H](C)[C@H]1CC[C@H]2[C@@H]3CC=C4C[C@@H](O)CC[C@]4(C)[C@H]3CC[C@]12C` [SJ000561051-1, 24(S)-HYDROXYCHOLESTEROL], the CMK %inh in the experiment with CMK was -0.3911%. The M07e %inh in the experiment on M07e is recorded as -2.462%. Also, the MOLM-13 %inh in the experiment with MOLM-13 is reported as -1.323%. Also, the MV4-11 %inh in the experiment on MV4-11 is on record as -0.7822%. The CMS %inh in the experiment with CMS is reported as -2.331%. For the same compound, the CHRF288-11 %inh in the experiment on CHRF288-11 is -3.422%. Moreover, the ML-2 %inh in the experiment on ML-2 was 0.6767%. Besides, the U937 %inh with U937 was -0.5103%.

As for `O=c1c(Oc2ccc(F)cc2F)cc2cnc(NC3CCOCC3)nc2n1C1CC1` [SJ000581039-1], the CMK %inh in the experiment on CMK is 4.979%. The M07e %inh in the experiment with M07e is reported as 4.212%. For the same compound, the MOLM-13 %inh in the experiment with MOLM-13 was determined as 0.2345%. For the same compound, the MV4-11 %inh with MV4-11 was determined as 3.055%. The CMS %inh in the experiment with CMS is given as 3.291%. The CHRF288-11 %inh in the experiment on CHRF288-11 is 6.117%. The ML-2 %inh in the experiment with ML-2 turned out to be 0.3273%. Also, the U937 %inh in the experiment on U937 is -0.2909%.

On to `Nc1ccc(S(=O)(=O)Nc2ccccn2)cc1` [SJ000285852-5, SULFAPYRIDINE], for which, in the experiment on CMK (CMK %inh, 10 µM), the CMK %inh is on record as -1.27%. The M07e %inh in the experiment on M07e (M07e %inh, 10 µM) stood at 0.899%. Also, in the experiment on MOLM-13 (MOLM-13 %inh, 10 µM), the MOLM-13 %inh is 1.863%. Further, the MV4-11 %inh in the experiment on MV4-11 (MV4-11 %inh, 10 µM) is on record as 1.788%. In addition, the CMS %inh with CMS (CMS %inh, 10 µM) was 2.339%. In the experiment with CHRF288-11 (CHRF288-11 %inh, 10 µM), the CHRF288-11 %inh came to 1.364%. For the same compound, the ML-2 %inh with ML-2 (ML-2 %inh, 10 µM) was -1.492%. In the experiment with U937 (U937 %inh, 10 µM), the U937 %inh was found to be 0.04414%.

On to `CCCCc1ncc(/C=C(\Cc2cccs2)C(=O)O)n1Cc1ccc(C(=O)O)cc1` [SJ000556755-1, EPROSARTAN MESYLATE], for which the CMK %inh with CMK was 1.513%. In addition, the M07e %inh in the experiment with M07e is 2.786%. Moreover, in the experiment on MOLM-13, the MOLM-13 %inh is reported as -0.5594%. In addition, in the experiment with MV4-11, the MV4-11 %inh is on record as -5.649%. Besides, the CMS %inh in the experiment with CMS was determined as 2.254%. Moreover, the CHRF288-11 %inh in the experiment on CHRF288-11 came to 1.693%. Also, the ML-2 %inh in the experiment with ML-2 is 1.173%. Besides, the U937 %inh with U937 is recorded as 2.452%.

Consider `CN(C)CCOC(C)(c1ccccc1)c1ccccn1` (stereo not shown) [SJ000285751-7, DOXYLAMINE SUCCINATE], for which the CMK %inh in the experiment with CMK is on record as -1.167%. The M07e %inh in the experiment on M07e worked out at 1.23%. In the experiment with MOLM-13, the MOLM-13 %inh turned out to be 4.161%. Moreover, the MV4-11 %inh with MV4-11 is reported as -5.123%. In addition, the CMS %inh in the experiment on CMS is -0.1312%. Moreover, the CHRF288-11 %inh in the experiment with CHRF288-11 was 11.69%. For the same compound, in the experiment on ML-2, the ML-2 %inh is listed as -0.5397%. In the experiment on U937, the U937 %inh is reported as -1.083%.

Regarding `C[C@]12C=CC(=O)C=C1CC[C@@H]1[C@@H]2C(=O)C[C@@]2(C)[C@H]1CC[C@]2(O)C(=O)CO` [SJ000285543-5, PREDNISONE], the CMK %inh in the experiment with CMK (CMK %inh, 10 µM) is -3.757%. The M07e %inh with M07e (M07e %inh, 10 µM) was determined as 3.17%. In addition, the MOLM-13 %inh in the experiment on MOLM-13 (MOLM-13 %inh, 10 µM) is given as -2.385%. Further, the MV4-11 %inh in the experiment with MV4-11 (MV4-11 %inh, 10 µM) worked out at 0.6819%. Besides, the CMS %inh in the experiment on CMS (CMS %inh, 10 µM) is recorded as -1.984%. Also, in the experiment with CHRF288-11 (CHRF288-11 %inh, 10 µM), the CHRF288-11 %inh worked out at 4.454%. Also, in the experiment on ML-2 (ML-2 %inh, 10 µM), the ML-2 %inh was -0.9024%. Moreover, the U937 %inh in the experiment on U937 (U937 %inh, 10 µM) is recorded as -0.6066%.

As to `NC[C@H]1CC[C@H](C(=O)O)CC1` [SJ000285898-4, TRANEXAMIC ACID], in the experiment with CMK, the CMK %inh was -3.012%. Further, the M07e %inh with M07e was 0.2149%. Further, the MOLM-13 %inh in the experiment on MOLM-13 is -3.616%. Also, the MV4-11 %inh in the experiment with MV4-11 was -0.1986%. Moreover, the CMS %inh in the experiment with CMS is -4.095%. For the same compound, the CHRF288-11 %inh in the experiment with CHRF288-11 was -2.741%. Further, in the experiment with ML-2, the ML-2 %inh was determined as 1.648%. Moreover, the U937 %inh in the experiment on U937 is listed as -1.275%.

`Cc1ccc(C(=O)Cn2c3c(sc2=N)CCCC3)cc1` [SJ000546523-1, PIFITHRIN-ALPHA HYDROBROMIDE | PIFITHRIN-ALPHA HYDROBROMIDE | | PIFITHRIN-ALPHA (PFTALPHA)]: the CMK %inh with CMK came to 3.731%. In the experiment on M07e, the M07e %inh is listed as 2.173%. For the same compound, the MOLM-13 %inh with MOLM-13 came to 4.765%. The MV4-11 %inh in the experiment with MV4-11 was 4.352%. Also, the CMS %inh in the experiment on CMS is given as 0.7689%. The CHRF288-11 %inh in the experiment on CHRF288-11 turned out to be 6.15%. The ML-2 %inh in the experiment on ML-2 was -0.3437%. For the same compound, the U937 %inh with U937 is reported as -0.03033%.
